# Laboratory results reported in patent US5824647A, “Chemotactic wound healing peptides” (priority 1995, dated 1998).
# Assays:
# [1] = system: infant foreskin fibroblasts; assay: Fibroblast chemotaxis in modified Boyden chambers (incl. checkerboard and deactivation studies); assay type: cell-based, human; parameters: key to FIBROBLAST EFFECTS Migration: NE = No Effect
# Description: Target cells used in in vitro chemotaxis assays were infant foreskin fibroblasts obtained by establishing monolayer cultures from explants of tissue. Cells were maintained in Eagle's minimum essential medium (MEM) supplemented with non-essential amino acids, antibiotics, 50 ug/ml ascorbic acid, and 9% fetal calf serum (FCS). Cells were passaged by trypsinization every 3-5 days.
# Infant foreskin fibroblasts were harvested from monolayer culture by gentle trypsinization, washed twice in serum-free Eagles's MEM and adjusted to a final concentration of 250,000 cells/ml. The cell suspension (0.4 ml) was added to the upper compartments of blind well modified Boyden chemotaxis chambers. The peptides of the invention being assayed for chemotactic activity were solubilized in glycylglycine (0.015M) buffered NaCl (0.14M), pH 7.2, hereinafter referred to as GGBS, and diluted 50% with serum-free MEM. Test substances were added to the lower compartment of the chemotaxis chambers. Gelatin-treated polycarbonate filters (8 micron pore size) were interposed between the lowest compartment and the upper cell compartment. Loaded chambers were incubated at 37° C. in a humidified atmosphere containing 5% CO2 for 150 minutes. After incubation, the chambers were disassembled, the filters removed, stained with hematoxylin, and mounted on glass cover slips. Fibroblast chemotaxis was quantitated by counting the number of fibroblasts in 20 oil immersion fields (OIF) that migrated and adhered to the lower surface of each filter. Samples were tested in quadruplicate and results are expressed as mean number of fibroblasts per 20 OIF±standard error of the mean (SEM). Chemotaxis neutralization studies were performed by adding TGF-β1 or fibronectin to the upper cell compartment and testing for effects on fibroblast migration to the TGF-β peptides.
# Zigmond-Hirsch checkerboard analysis (Zigmond & Hirsch, J. Exptl. Med. 137:387, 1972) was performed to determine whether the 7-mer peptide 368-374 (Val Tyr Tyr Val Gly Arg Lys) induced chemotaxis of fibroblasts, monocytes and neutrophils.
# Deactivation studies were utilized to determine whether the peptides of the invention containing the 7-mer peptide amino acid sequence induced chemotaxis via cellular receptors and mechanisms utilized by intact TGF-β.
# [2] = system: human peripheral blood monocytes; assay: Monocyte chemotaxis in modified Boyden chambers; assay type: cell-based; parameters: key to Monocyte Migration: NE = No Effect
# Text: Human peripheral blood neutrophils and monocytes, isolated from whole blood using standard techniques may also be used in the chemotaxis assays, in a manner similar to infant foreskin fibroblasts, to measure the chemotactic activity of the peptides towards inflammatory cells. Such cells may also be maintained in supplemented MEM as above, to which 5-10% FCS may be added. When using neutrophils and monocytes, instead of fibroblasts, the polycarbonate filters used in the modified Boyden chambers had pore sizes of 2 and 3 microns, respectively. As above, all assays were carried out in quadruplicate.
# The following 7-mer peptides (peptides 368-374, corresponding to amino acids 368-374 of human TGF-β1): VYYVGRK (SEQ ID NO. 1), LYYIGKT (SEQ ID NO. 2), LYYVGRT (SEQ ID NO. 3), IYYVGRN (SEQ ID NO. 4) and IYYVGRT (SEQ ID NO. 5) were synthesized by the Merrifield technique, purified by HPLC, and tested at different concentrations in the same assay for their ability to stimulate chemotaxis of human peripheral blood monocytes in vitro modified Boyden chambers.
# [3] = system: infant foreskin fibroblasts; assay: Collagen production by fibroblasts (modified Peterofsky-Diegelman assay); assay type: cell-based, human; parameters: key to FIBROBLAST EFFECTS Collagen: NE = No Effect
# Description: The peptides of the invention were also found to stimulate collagen production by fibroblasts. Collagen production by fibroblasts in response to the peptides of the present invention was measured utilizing a modified Peterofsky-Diegelman assay. The assay is used to determine whether the peptides of the invention stimulate or inhibit collagen production by fibroblasts.
# Low passage (4-12 subpassages) infant foreskin fibroblasts were plated out at a density of 10^5 cells/well in Falcon 3008 multiwell plates in complete maintenance medium containing 10% FCS. After cells reached confluency (72 hr), the medium was changed daily for 3 days, each time being replaced with serum-free maintenance medium containing fresh ascorbic acid. Samples (50 μl) were added to triplicate wells containing 450 μl serum-free MEM supplemented with fresh ascorbic acid and [^3 H]-proline (sp. act. 20 Ci/mmole), but no non-essential amino acids. After an additional 24 hr of culture, supernatants were reacted with protease-free bacterial collagenase to digest all collagen. Similar aliquots of unreacted supernatants and bacterial collagenase-treated supernatants were precipitated with cold 10% trichloroacetic acid (TCA) and were centrifuged for 5 minutes in a Beckman microfuge. Aliquots of the supernatants, after TCA precipitated proteins were pelleted, were placed in vials containing Hydrofluor and then were counted in a scintillation counter. CPM from TCA precipitated supernatants not reacted with bacterial collagenase were subtracted from each culture. The resulting CPM was a reflection of the collagen produced by that culture.
# A modified Peterofsky-Diegelmann assay was used to screen peptide samples for their ability to stimulate or inhibit collagen production. Low passage (4-12 subpassages) infant foreskin fibroblast were plated out at a density of 10^5 cells/well of Falcon 3008 multiwell plates in complete maintenance medium containing 10% FCS. After cells reached confluency (72 hr) the medium was changed daily for 3 days, each time being replaced with serum-free maintenance medium containing fresh ascorbic acid. Samples ([…]) were added to triplicate wells containing […] serum free MEM supplemented with fresh ascorbic acid and [^3 H]-proline (sp. act. 20 Ci/mmole), but no non-essential amino acids. After an additional 24 hours of culture, supernatants were reacted with protease-free bacterial collagenase to digest all collagen. Similar aliquots of unreacted supernatants and bacterial collagenase-treated supernatants were precipitated with cold 10% trichloroacetic acid (TCA) and were centrifuged for 5 minutes in a Beckman microfuge. Aliquots of the supernatants, after TCA precipitated proteins were pelleted, were placed in vials containing Hydrofluor and then were counted in a scintillation counter. CPM from TCA precipitated supernatants not reacted with bacterial collagenase were subtracted from each culture. The resulting CPM was a reflection of the collagen produced by that culture.
# Collagen production was measured following administration of the various 7-mer peptides 368-374 (SEQ ID NOs. 1-5) to fibroblasts. Peptides […] (SEQ ID NO. 1), LYYIGKT (SEQ ID NO. 2), LYYVGRT (SEQ ID NO. 3), IYYVGRN (SEQ ID NO. 4) and IYYVGRT (SEQ ID NO. 5) were synthesized by the Merrifield technique, purified by HPLC, and tested at different concentrations in the same assay for their ability to stimulate production of collagen in confluent cultures of infant foreskin fibroblasts. Collagen production was measured by incorporation of [^3 H]proline into collagenase-sensitive protein. All samples were tested in triplicate, and values represent the mean of triplicate determinations. Data are expressed as "% stimulation" of collagen production relative to control production in cultures with plain culture medium only added. […]
# [4] = system: fibroblasts; assay: Hyaluronate production by fibroblasts; assay type: cell-based; parameters: key to FIBROBLAST EFFECTS Hyaluronate: NE = No Effect; settings: Table II summary
# [5] = system: fibroblasts; assay: HLA-DR, fibroblast effects; assay type: cell-based; parameters: key: NE = No Effect; settings: Table II summary
# [6] = system: infant foreskin fibroblasts; assay: Collagen production by fibroblasts (modified Peterofsky-Diegelman assay); assay type: cell-based, human; settings: [3H]proline incorporation into collagenase-sensitive protein; listed as LYYIGRT
# [7] = peptide in lower compartment of modified Boyden chamber
Substance,FIBROBLAST EFFECTS Migration ([1]; Table II summary),Monocyte Migration ([2]; Table II summary),FIBROBLAST EFFECTS Collagen ([3]; Table II summary),FIBROBLAST EFFECTS Hyaluronate [4],FIBROBLAST EFFECTS HLA-DR [5],"fibroblast chemotaxis / migration (in words) [1, 7]","monocyte chemotaxis / migration (in words) [2, 7]",collagen production by fibroblasts (in words) ([3]; [3H]proline incorporation into collagenase-sensitive protein),collagen production by fibroblasts (in words) [6]
"280-339: synthetic peptide 280-339, corresponds to the amino terminal portion of TGF-β1 monomer (ALDTNYCFSSTEKNCCVRQLYIDFRKDLGWKWIHEPKGYHANFCLGPCPYIWSLDTQYSK; printed: Ala Leu Asp Thr Asn Tyr Cys Phe Ser Ser Thr Glu Lys Asn Cys Cys Val Arg Gln Leu Tyr Ile Asp Phe Arg Lys Asp Leu Gly Trp Lys Trp Ile His Glu Pro Lys Gly Tyr His Ala Asn Phe Cys Leu Gly Pro Cys Pro Tyr Ile Trp Ser Leu Asp Thr Gln Tyr Ser Lys)",NE,NE,NE,NE,NE,,,,
LYYIGKT [7-mer peptide 368-374 homolog],,,,,,induced fibroblast chemotaxis at all of the concentration tested,induced monocyte chemotaxis at all of the concentrations tested,stimulated collagen production to some degree,stimulated collagen production
